These results are taken from patent US20160272935A1, “Method of improving the yield of algae production” (RELIANCE INDUSTRIES LIMITED, priority 2013, published 2016).

For assay [1], the system named is diatoms. Briefly: Pond (natural habitat) trial with urea cycle pathway inhibitor, cellometer cell count: diatoms. Details: species or system diatom. The note with it: 25 mM added to pond. The protocol:
(§1) Another experiment was carried out in a natural habitat i.e. a pond consisting of a mixed environment of algae and diatoms. At Day 1 using a cellometer technique the cell counts of algae and diatoms was carried out.
(§2) A urea cycle pathway inhibitor, namely Tris 25 mM was added to the pond.
(§3) Periodic cell count readings were carried out for a span of two months. The diatom and the algal cell count were then determined using the cellometer technique at the end of the 2 month span.

In assay [2] the test system is algae. Briefly: Pond (natural habitat) trial with urea cycle pathway inhibitor, cellometer cell count: algae. The settings on record: 25 mM added to pond, end of 2 month span; day 1 count 1000 cells/meter. The protocol: as §1, §2, §3
Another assay deals with diatoms and algae. The assay can be described thus: Similar trials with other urea cycle pathway inhibitors in mixed environment of diatoms and algae. The settings on record: no details given.
In assay [3] the test system is diatoms. Briefly: Mixed algae/diatom culture with urea cycle pathway inhibitor, cellometer cell count: diatoms. The format is cell-based. The note with it: 1 mM inhibitor. As to the method: (§4) A control was established containing equal quantities of algae and diatoms. Similarly a test was also established containing the same equal quantities of algae and diatoms along with 1 mM of urea cycle pathway inhibitor namely, Saccharopine.
(§5) At Day 1 using a cellometer technique the cell counts of algae and diatoms in both the control and the test was carried out.
(§6) Both the control and the test were then incubated for 4 days in similar optimum conditions with periodic checking for cell counts in both the control and the test vessels.
(§7) The diatom and the algal cell count was then determined using the cellometer technique at the end of 4th day.

Assay [4] relates to algae. The assay can be described thus: Mixed algae/diatom culture with urea cycle pathway inhibitor, cellometer cell count: algae. The note with it: 1 mM inhibitor. The format is cell-based. As to the method:
as §4, §5, §6, §7

On to `NC(CO)(CO)CO` [Tris], for which the “Diatom cell count of the pond reduced, as compared to the cell count of diatoms on Day 1” value in the assay on diatoms [1] (2 months) is listed as 71%. Also, the “Cell count at Day 60 Diatom” value in the assay with diatoms [1] (end of 2 month span, day 1 count 2000 cells/meter) worked out at 580 cells/meter. The “Cell count at Day 60 Algae” value with algae [2] is 5300 cells/meter. Besides, in the assay on diatoms and algae, the “Outcome of similar trials (diatom inhibition and algal growth)” value is given as “equally successful results”.

Take `O=S(=O)(O)CCN1CCN(CCO)CC1` [hepes]: the “Outcome of similar trials (diatom inhibition and algal growth)” value in the assay on diatoms and algae is “equally successful results”.

With `N` [ammonia], in the assay with diatoms and algae, the “Outcome of similar trials (diatom inhibition and algal growth)” value is “equally successful results”.

With `NCCCC[C@H](N)C(=O)O` [lysine], in the assay on diatoms and algae, the “Outcome of similar trials (diatom inhibition and algal growth)” value is listed as “equally successful results”.

Consider `CCCCCCCCCCCCCCCC(=O)SCCNC(=O)CCNC(=O)[C@H](O)C(C)(C)COP(=O)(O)OP(=O)(O)OC[C@H]1O[C@@H](n2cnc3c(N)ncnc32)[C@H](O)[C@@H]1OP(=O)(O)O` [palmitoyl CoA], for which the “Outcome of similar trials (diatom inhibition and algal growth)” value with diatoms and algae is reported as “equally successful results”.

For the molecule `N[C@@H](CCCCN[C@@H](CCC(=O)O)C(=O)O)C(=O)O` [Saccharopine], in the assay on diatoms [3] (after 4 days incubation, control 842, day 1 count 200), the “Day 4 (Cell Count) Inhibitor Diatom” value amounted to 62. Besides, in the assay with diatoms [3] (day 4), the “Diatom cell count reduction from day 1” value amounted to 69%. Further, in the assay with diatoms [3] (initial count at day 1), the “Day 1 (Cell count) Inhibitor Diatom” value is reported as 200. Moreover, in the assay on algae [4] (after 4 days incubation, control 119, day 1 count 100), the “Day 4 (Cell Count) Inhibitor Algae” value was found to be 450. The “Day 1 (Cell count) Inhibitor Algae” value with algae [4] (initial count at day 1) came to 100. The “Outcome of similar trials (diatom inhibition and algal growth)” value in the assay on diatoms and algae is “equally successful results”.

`O=C([O-])c1ccccc1.[Na+]` [sodium benzoate]: the “Outcome of similar trials (diatom inhibition and algal growth)” value in the assay with diatoms and algae is recorded as “equally successful results”.
